From patent publication US20240158446A1, “CYCLIC COMPOUND HAVING SELECTIVE INHIBITORY ACTION ON KRAS OVER HRAS AND NRAS” (CHUGAI SEIYAKU KABUSHIKI KAISHA, priority 2021, published 2024)

Columns and labels:
[1] = biological target: GDP-bound HRAS wild-type protein (Homo sapiens, UniProt P01112); test: Binding to HRAS by surface plasmon resonance (SPR), Single Cycle Kinetics; conditions: SPR, GDP-bound HRAS wild-type protein vs GDP-bound KRAS wild-type protein
[2] = biological target: GDP-bound NRAS wild-type protein (Homo sapiens, UniProt P01111); test: Binding to NRAS by surface plasmon resonance (SPR), Single Cycle Kinetics; conditions: SPR, GDP-bound NRAS wild-type protein vs GDP-bound KRAS wild-type protein
GDP-bound NRAS wild-type protein, sequence (P01111 whole entry): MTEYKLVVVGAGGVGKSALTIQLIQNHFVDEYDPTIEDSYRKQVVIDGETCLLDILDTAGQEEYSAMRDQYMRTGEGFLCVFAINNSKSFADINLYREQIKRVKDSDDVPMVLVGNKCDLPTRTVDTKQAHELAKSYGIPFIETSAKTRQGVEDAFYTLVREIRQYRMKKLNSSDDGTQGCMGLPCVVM

[3] = biological target: GDP-bound KRAS wild-type protein (Homo sapiens, UniProt P01116); test: Binding to KRAS by surface plasmon resonance (SPR), Single Cycle Kinetics; conditions: SPR, Single Cycle Kinetics, GDP-bound KRAS wild-type protein; read-out: KRAS KD
GDP-bound KRAS wild-type protein, sequence (P01116 whole entry): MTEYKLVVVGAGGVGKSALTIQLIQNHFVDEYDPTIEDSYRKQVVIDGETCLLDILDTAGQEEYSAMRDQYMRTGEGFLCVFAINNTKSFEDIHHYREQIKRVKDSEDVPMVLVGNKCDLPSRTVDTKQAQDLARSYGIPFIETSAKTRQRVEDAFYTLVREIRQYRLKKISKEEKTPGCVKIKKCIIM

GDP-bound HRAS wild-type protein, sequence (P01112 whole entry): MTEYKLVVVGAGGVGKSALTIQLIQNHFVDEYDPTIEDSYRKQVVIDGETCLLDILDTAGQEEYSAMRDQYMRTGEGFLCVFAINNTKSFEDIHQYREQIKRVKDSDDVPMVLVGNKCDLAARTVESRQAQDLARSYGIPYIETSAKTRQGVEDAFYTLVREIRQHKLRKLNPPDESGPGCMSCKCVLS

Row | Compound | Kd [3] [nM] | HRAS/KRAS (ratio of KD value for HRAS to KD value for KRAS) [1] | NRAS/KRAS (ratio of KD value for NRAS to KD value for KRAS) [2]
1 | CCO[C@@H]1C[C@H]2C(=O)NC3(CCC3)C(=O)N(C)[C@@H](C3CCCC3)C(=O)N(C)[C@H](C(=O)N3CCOCC3)CC(=O)N(C)[C@@H](CC)C(=O)N[C@@H]([C@@H](C)CC)C(=O)N(C)CC(=O)N(C)[C@H]3CC(C)=CCN(C3=O)[C@@H](Cc3ccc(C(F)(F)F)cc3)C(=O)N(C)CC(=O)N[C@@H](CCc3cc(F)c(C(F)(F)F)c(F)c3)C(=O)N2C1 [PP1041] | 0.57 | C (A compound having a KD ratio of 0.1 or more and less than 3 is denoted as C) | C (A compound having a KD ratio of 0.1 or more and less than 3 is denoted as C)
2 | CCO[C@@H]1C[C@H]2C(=O)NC3(CCC3)C(=O)N(C)[C@@H](C3CCCC3)C(=O)N(C)[C@H](C(=O)N3CCOCC3)CC(=O)N(C)[C@@H](CC)C(=O)N[C@@H]([C@@H](C)CC)C(=O)N3CC[C@H]3C(=O)N(C)[C@H]3CC(C)=CCN(C3=O)[C@@H](Cc3ccc(C(F)(F)F)cc3)C(=O)N(C)CC(=O)N[C@@H](CCc3cc(F)c(C(F)(F)F)c(F)c3)C(=O)N2C1 [PP1042] | 1.3 | C (A compound having a KD ratio of 0.1 or more and less than 3 is denoted as C) | C (A compound having a KD ratio of 0.1 or more and less than 3 is denoted as C)
3 | CCO[C@@H]1C[C@H]2C(=O)NC3(CCCC3)C(=O)N(C)[C@@H](C3CCCC3)C(=O)N(C)[C@H](C(=O)N3CCOCC3)CC(=O)N(C)[C@@H](CC)C(=O)N[C@@H]([C@@H](C)CC)C(=O)N(C)CC(=O)N(C)[C@H]3CC(C)=CCN(C3=O)[C@@H](Cc3ccc(C(F)(F)F)cc3)C(=O)N(C)CC(=O)N[C@@H](CCc3cc(F)c(C(F)(F)F)c(F)c3)C(=O)N2C1 [PP1043] | 2.4 | C (A compound having a KD ratio of 0.1 or more and less than 3 is denoted as C) | C (A compound having a KD ratio of 0.1 or more and less than 3 is denoted as C)
4 | CCO[C@@H]1C[C@H]2C(=O)NC3(CCC3)C(=O)N(C)[C@@H](C3CCCC3)C(=O)N(C)[C@H](C(=O)N3CCOCC3)CC(=O)N(CC)[C@@H](CC(C)C)C(=O)N[C@@H]([C@@H](C)CC)C(=O)N(C)CC(=O)N(C)[C@H]3CC(C)=CCN(C3=O)[C@@H](Cc3ccc(C(F)(F)F)cc3)C(=O)N(C)CC(=O)N[C@@H](CCc3cc(F)c(C(F)(F)F)c(F)c3)C(=O)N2C1 [PP1044] | 1.8 | C (A compound having a KD ratio of 0.1 or more and less than 3 is denoted as C) | C (A compound having a KD ratio of 0.1 or more and less than 3 is denoted as C)
5 | CCO[C@@H]1C[C@H]2C(=O)NC3(CCCC3)C(=O)N(C)[C@@H](C3CCCC3)C(=O)N(C)[C@H](C(=O)N(C)C)CC(=O)N(C)[C@@H](CC(C)C)C(=O)N[C@@H]([C@@H](C)CC)C(=O)N(C)CC(=O)N(C)[C@H]3CC(C)=C(C)CN(C3=O)[C@@H](Cc3ccc(C(F)(F)F)cc3)C(=O)N(C)CC(=O)N[C@@H](CCc3cc(F)c(C(F)(F)F)c(F)c3)C(=O)N2C1 [PP1045] | 1.7 | C (A compound having a KD ratio of 0.1 or more and less than 3 is denoted as C) | C (A compound having a KD ratio of 0.1 or more and less than 3 is denoted as C)
6 | CCO[C@@H]1C[C@H]2C(=O)NC3(CCC3)C(=O)N(C)[C@@H](C3CCCC3)C(=O)N(C)[C@H](C(=O)N(C)C)CC(=O)N(C)[C@@H](CC(C)C)C(=O)N[C@@H]([C@@H](C)CC)C(=O)N3CC[C@H]3C(=O)N(C)[C@H]3CC(C)=C(C)CN(C3=O)[C@@H](Cc3ccc(C(F)(F)F)cc3)C(=O)N(C)CC(=O)N[C@@H](CCc3cc(F)c(C(F)(F)F)c(F)c3)C(=O)N2C1 [PP1047] | 0.85 | C (A compound having a KD ratio of 0.1 or more and less than 3 is denoted as C) | C (A compound having a KD ratio of 0.1 or more and less than 3 is denoted as C)
7 | CCO[C@@H]1C[C@H]2C(=O)NC3(CCCC3)C(=O)N(C)[C@@H](C3CCCC3)C(=O)N(C)[C@H](C(=O)N(C)C)CC(=O)N(C)[C@@H](CC)C(=O)N[C@@H]([C@@H](C)CC)C(=O)N(C)CC(=O)N(C)[C@H]3CC(C)=C(C)CN(C3=O)[C@@H](Cc3ccc(C(F)(F)F)cc3)C(=O)N(C)CC(=O)N[C@@H](CCc3cc(F)c(C(F)(F)F)c(F)c3)C(=O)N2C1 [PP1050] | 0.94 | C (A compound having a KD ratio of 0.1 or more and less than 3 is denoted as C) | C (A compound having a KD ratio of 0.1 or more and less than 3 is denoted as C)
8 | CC[C@H](C)[C@@H]1NC(=O)[C@H](CC(C)C)N(C)C(=O)C[C@@H](C(=O)N2CCOCC2)N(C)C(=O)[C@H](C2CCCC2)N(C)C(=O)C2(CCC2)NC(=O)[C@@H]2[C@@H](OC)CCN2C(=O)[C@H](CCc2cc(F)c(C(F)(F)F)c(F)c2)NC(=O)CN(C)C(=O)[C@H](Cc2ccc(C(F)(F)F)cc2)N2CCCCC[C@@H](C2=O)N(C)C(=O)CN(C)C1=O [PP1067] | 2.9 | B (a compound having 3 or more and less than 10 is denoted as B) | B (a compound having 3 or more and less than 10 is denoted as B)

The next lines start with results.

Row | Kd [3] [nM] | Compound | HRAS/KRAS (ratio of KD value for HRAS to KD value for KRAS) [1] | NRAS/KRAS (ratio of KD value for NRAS to KD value for KRAS) [2]
9 | 0.91 | CCO[C@@H]1C[C@H]2C(=O)NC3(CCC3)C(=O)N(C)[C@@H](C3CCCC3)C(=O)N(C)[C@H](C(=O)N(C)C)CC(=O)N(C)[C@@H](CC)C(=O)N[C@@H]([C@@H](C)CC)C(=O)N3CC[C@H]3C(=O)N(C)[C@H]3CC(C)=C(C)CN(C3=O)[C@@H](Cc3ccc(C(F)(F)F)cc3)C(=O)N(C)CC(=O)N[C@@H](CCc3cc(F)c(C(F)(F)F)c(F)c3)C(=O)N2C1 [PP1049] | C (A compound having a KD ratio of 0.1 or more and less than 3 is denoted as C) | C (A compound having a KD ratio of 0.1 or more and less than 3 is denoted as C)
10 | 0.25 | CCO[C@@H]1C[C@H]2C(=O)NC3(CCC3)C(=O)N(C)[C@@H](C3CCCC3)C(=O)N(C)[C@H](C(=O)N(C)C)CC(=O)N(C)[C@@H](CC)C(=O)N[C@@H]([C@@H](C)CC)C(=O)N(CC)CC(=O)N(C)[C@H]3C/C=C\CCN(C3=O)[C@@H](Cc3ccc(C(F)(F)F)cc3)C(=O)N(C)CC(=O)N[C@@H](CCc3cc(F)c(C(F)(F)F)c(F)c3)C(=O)N2C1 [PP1052] | A (a compound having 10 or more and less than 20 is denoted as A) | A (a compound having 10 or more and less than 20 is denoted as A)
11 | 0.23 | CCCN1CC(=O)N(C)[C@H]2C/C=C\CCN(C2=O)[C@@H](Cc2ccc(C(F)(F)F)cc2)C(=O)N(C)CC(=O)N[C@@H](CCc2cc(F)c(C(F)(F)F)c(F)c2)C(=O)N2C[C@H](OCC)C[C@H]2C(=O)NC2(CCC2)C(=O)N(C)[C@@H](C2CCCC2)C(=O)N(C)[C@H](C(=O)N(C)C)CC(=O)N(C)[C@@H](CC)C(=O)N[C@@H]([C@@H](C)CC)C1=O [PP1053] | A (a compound having 10 or more and less than 20 is denoted as A) | A (a compound having 10 or more and less than 20 is denoted as A)
12 | 3.9 | CCO[C@@H]1C[C@H]2C(=O)NC3(CCC3)C(=O)N(C)[C@@H](C3CCCC3)C(=O)N(C)[C@H](C(=O)N(C)C)CC(=O)N(C)[C@@H](CC)C(=O)N[C@@H]([C@@H](C)CC)C(=O)N(C)[C@@H](C)C(=O)N(C)[C@H]3C/C=C\CCN(C3=O)[C@@H](Cc3ccc(C(F)(F)F)cc3)C(=O)N(C)CC(=O)N[C@@H](CCc3cc(F)c(C(F)(F)F)c(F)c3)C(=O)N2C1 [PP1054] | B (a compound having 3 or more and less than 10 is denoted as B) | A (a compound having 10 or more and less than 20 is denoted as A)
13 | 0.31 | CCO[C@@H]1C[C@H]2C(=O)NC3(CCC3)C(=O)N(C)[C@@H](C3CCCC3)C(=O)N(C)[C@H](C(=O)N(C)C)CC(=O)N(C)[C@@H](CC)C(=O)N[C@@H]([C@@H](C)CC)C(=O)N3C[C@H](OCC)C[C@H]3C(=O)N(C)[C@H]3C/C=C\CCN(C3=O)[C@@H](Cc3ccc(C(F)(F)F)cc3)C(=O)N(C)CC(=O)N[C@@H](CCc3cc(F)c(C(F)(F)F)c(F)c3)C(=O)N2C1 [PP1057] | B (a compound having 3 or more and less than 10 is denoted as B) | A (a compound having 10 or more and less than 20 is denoted as A)
14 | 2.6 | CCO[C@@H]1C[C@H]2C(=O)NC3(CCC3)C(=O)N(C)[C@@H](C3CCCC3)C(=O)N(C)[C@H](C(=O)N(C)C)CC(=O)N(C)[C@@H](CC)C(=O)N[C@@H]([C@@H](C)CC)C(=O)N3CCSC[C@H]3C(=O)N(C)[C@H]3C/C=C\CCN(C3=O)[C@@H](Cc3ccc(C(F)(F)F)cc3)C(=O)N(C)CC(=O)N[C@@H](CCc3cc(F)c(C(F)(F)F)c(F)c3)C(=O)N2C1 [PP1060] | A (a compound having 10 or more and less than 20 is denoted as A) | A (a compound having 10 or more and less than 20 is denoted as A)
15 | 0.45 | CCO[C@@H]1C[C@H]2C(=O)NC3(CCC3)C(=O)N(C)[C@@H](C3CCCC3)C(=O)N(C)[C@H](C(=O)N(C)C)CC(=O)N(C)[C@@H](CC)C(=O)N[C@@H]([C@@H](C)CC)C(=O)N[C@@H](C)C(=O)N(C)[C@H]3C/C=C\CCN(C3=O)[C@@H](Cc3ccc(C(F)(F)F)cc3)C(=O)N(C)CC(=O)N[C@@H](CCc3cc(F)c(C(F)(F)F)c(F)c3)C(=O)N2C1 [PP1065] | B (a compound having 3 or more and less than 10 is denoted as B) | A (a compound having 10 or more and less than 20 is denoted as A)
